US4992444A, “Antifolate agents” (priority 1986, dated 1991)
Like-named read-outs stand apart in the source and are kept apart here.

How the values were obtained:
[1] = tested on: P388 lymphocytic leukaemia; test: In vivo antitumor screening against P388 lymphocytic leukaemia in mice; settings: Mus musculus, P388, ip, free base, intraperitoneal, NCI protocols, read-out: Optimum T/C; for response vs control in vivo at 200 mg/kg: optimum dose 200 mg/kg; for response vs control in vivo at 100 mg/kg: optimum dose 100 mg/kg; for response vs control in vivo at 240 mg/kg: optimum dose 240 mg/kg
Text: ^a All compounds administered to mice as free bases via
intraperitoneal route according to NCI protocols.

[2] = tested on: M5076 reticulum cell sarcoma; assay type: in vivo; settings: for Death: mouse, in vivo;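 as to all read-outs here: mice bearing tumor implanted intramuscularly on day 1, given compound intraperitoneally once a day for 17 days in arachis oil containing 10% DMSO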
Text: Tumor: implanted intramuscularly on day 1
Drug: in 10% DMSO/arachis oil administered daily for
17 days by intraperitoneal route.
*Test/Control assessed at day 24

[3] = tested on: L1210 murine leukaemia cells; test: In vitro cytotoxicity against L1210 cells; assay type: cell-based; settings: Mus musculus
Procedure: In vitro cytotoxicity studies
Cells were seeded routinely every 72 hours at 10^4 cells.ml^-1 and counted as 10^6 cells.ml^-1 prior to each experiment and counts were performed following incubation (5% CO2 in air at full humidity) for 72 hours at 37° C., with the appropriate concentration of drug.

[4] = molecular target: T1, rat liver DHFR (Rattus norvegicus, UniProt Q920D2); test: Inhibition of rat liver DHFR (spectrophotometric assay; I50 and Ki); assay type: biochemical
T1 construct: from tissue; host or cells: liver of male Wistar rats; homogenate supernatant, pH 5.1 step, dialysed, partially purified
T1 sequence (Q920D2 1-187): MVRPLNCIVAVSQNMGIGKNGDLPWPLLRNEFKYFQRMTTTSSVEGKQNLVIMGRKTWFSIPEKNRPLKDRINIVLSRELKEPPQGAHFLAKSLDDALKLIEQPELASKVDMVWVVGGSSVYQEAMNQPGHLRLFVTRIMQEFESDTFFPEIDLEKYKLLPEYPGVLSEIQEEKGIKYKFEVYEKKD
Procedure: All solutions were prepared on the day previous to the experiment and stored in the dark at 4° C. prior to use.
The stock solutions were diluted, as necessary, immediately before use to produce the required inhibitor concentration.
B.1 Preparation of partially purified DHFR
All further manipulations were performed at 4° C.: the livers (30.7 g) were transferred to a Waring blender to which approximately 8 volumes of water was added (final volume c.a. 300 ml), whereupon the mixture was homogenised for 2 minutes for periods of 30s, allowing 30s between each run to minimise heating. Liver homogenate was centrifuged at approximately 20,000 g for 20 minutes and the pellet was discarded. The supernatant liquid was adjusted to pH 5.1 with dilute acetic acid (1.0 M initially and 0.1 M finally) and after centrifugation at 27,000 g for a further 20 minutes, the clear wine-red solution was transferred to visking tubing (2.5 cm diameter) and dialysed for 12 hours against 0.01 sodium acetate buffer solution. The dialysate was examined and if turbid, centrifuged again at 27,000 g for 20 minutes. The clear preparation was transferred to sterile plastic stoppered tubes (10 ml) and stored at -10° C. prior to use.
B.2. Preparation of reagent solutions
The buffer was kept at 4° C. to prevent bacterial growth and discarded after 3 days.
The solution was maintained at 0° C.
An aqueous solution of NADPH (2 mg.ml^-1, 2.0 mM) was prepared immediately prior to use and again maintained at 0° C.
B.3 Assay for inhibitor activity
Plastic disposable cuvettes were used throughout.
The assay was carried out as follows: NADPH (0.1 ml) and the enzyme preparation (0.1 ml) were incubated at 30° C. for 5 minutes in phosphate buffer (total volume 1.9 ml).
Reference cuvettes were set up containing NADPH, buffer, inhibitor if appropriate and dihydrofolate, but without enzyme (Table A).
Enzyme activity was estimated from the slope of the change of absorbance with time and this was arbitrarily designated as 100% for the uninhibited enzyme.
The remaining inhibitors were selected for I50 determinations and inhibitory activity was evaluated in duplicate at a minimum of four inhibitor concentrations, from which the I50 value was determined by a graphical method.
Compounds selected for inhibition constant (KI) determinations were assayed following an identical method to that described above except that inhibitory activity was measured at a minimum of ten inhibitor concentrations, again in duplicate, from which the appropriate KI values were determined by a Zone B analysis.

[5] = Table IV, 72 hours, read-out: IC50 (L1210 cells)
[6] = Table IV, read-out: I50, rat liver dihydrofolate reductase
[7] = Table III, drug concentration necessary to reduce the 72 hour cell count to 50% of control, read-out: IC50, cytotoxicity against L1210 cells in vitro
[8] = Table II, rat liver DHFR, 95% confidence limits, read-out: Ki
[9] = 0.75 mg/kg/day, Test/Control assessed at day 24, i.p.
[10] = 3.125 mg/kg/day, Test/Control assessed at day 24, i.p.
[11] = 6.25 mg/kg/day, Test/Control assessed at day 24, i.p.
[12] = 12.5 mg/kg/day, Test/Control assessed at day 24, i.p.
[13] = Table I, solvent B = 0.1 M hydrochloric acid, read-out: I50, inhibition of rat liver DHFR

## CCc1nc(N)nc(N)c1-c1ccc(NCCc2ccccc2)c([N+](=O)[O-])c1 [Compound 10, 2,4-Diamino-6-ethyl-5-(3-nitro-4-phenethylaminophenyl)-pyrimidine]
[1]
  response vs control in vivo at 200 mg/kg: 142%

## CCc1nc(N)nc(N)c1-c1ccc(NCc2ccc(C(F)(F)F)cc2)c([N+](=O)[O-])c1 [Compound 28, 2,4-diamino-5-[3-nitro-4-(4-trifluoromethylbenzylamino)phenyl]-6-ethylpyrimidine]
[2]; ip, 3.125 mg/kg, 576 h
  T/C × 100: 40
[2]; ip, 6.25 mg/kg
  Tumor volume: 454 mm^3
[2]; ip, 6.25 mg/kg, 576 h
  T/C × 100: 20
[2]; ip, 12.5 mg/kg
  Tumor volume: 265 mm^3
[2]; ip, 12.5 mg/kg, 576 h
  T/C × 100: 12
[2]; ip, 25 mg/kg, 576 h
  T/C × 100: < 8
[2]
  Death: Dead

## CCc1nc(N)nc(N)c1-c1ccc(N(C)Cc2ccc(C(=O)OC)cc2)c([N+](=O)[O-])c1 [Compound 15, 2,4-Diamino-6-ethyl-5-{4-[N-(4-methoxycarbonylbenzyl)-N-methylamino]-3-nitrophenyl}pyrimidine]
[3]; [5]
  IC50: 100 nM

## CCOCCOC(=O)c1ccc(CN(C)c2ccc(-c3c(N)nc(N)nc3CC)cc2[N+](=O)[O-])cc1 [Compound 16]
[3]; [5]
  IC50: 40 nM
[4]; [6]
  IC50: 1.5 nM

## CCc1nc(N)nc(N)c1-c1ccc(N(C)C)c([N+](=O)[O-])c1 [Compound 3, 2,4-Diamino-5-(4-dimethylamino-3-nitrophenyl)-6-ethylpyrimidine]
[1]
  response vs control in vivo at 100 mg/kg: 145%

## CCc1nc(N)nc(N)c1-c1ccc(NCc2ccccc2)c([N+](=O)[O-])c1 [Compound 5, 2,4-Diamino-5-(4-benzylamino-3-nitrophenyl)-6-ethylpyrimidine]
[1]
  response vs control in vivo at 240 mg/kg: 126%
[3]; [7]
  IC50: < 1 nM

## CCc1nc(N)nc(N)c1-c1ccc(N(C)Cc2ccc(OC)cc2)c([N+](=O)[O-])c1 [Compound 17, 2,4-Diamino-6-ethyl-5-{4-[N-(4-methoxybenzyl)-N-methylamino]-3-nitrophenyl}pyrimidine]
[3]; [5]
  IC50: 70 nM

## CCc1nc(N)nc(N)c1-c1ccc(N(CC)Cc2ccccc2)c([N+](=O)[O-])c1 [Compound 7, 2,4-Diamino-6-ethyl-5-(4-N-ethylbenzylamino-3-nitrophenyl)pyrimidine]
[1]
  response vs control in vivo at 200 mg/kg: 144%
[4]; [8]
  Ki: 0.04 ± 0.03 nM

## CCc1nc(N)nc(N)c1-c1ccc(N(C)Cc2ccccc2)c([N+](=O)[O-])c1 [Compound 6, 2,4-Diamino-6-ethyl-5-(4-N-methylbenzylamino-3-nitrophenyl)pyrimidine]
[1]; optimum dose 480 mg/kg
  response vs control in vivo at 480 mg/kg: 205%

## CCc1nc(N)nc(N)c1-c1ccc(N(C)Cc2ccc(C(=O)NC)cc2)c([N+](=O)[O-])c1 [Compound 19, 2,4-Diamino-6-ethyl-5-(4-{N-[4-(N-methylcarbamoyl)benzyl]-N-methylamino}-3-nitrophenyl)pyrimidine]
[2]; [9]
  T/C × 100: 67
[2]; [10]
  T/C × 100: 41
[2]; [11]
  T/C × 100: 30
[2]; [12]
  T/C × 100: 15
[2]; ip, 12.5 mg/kg
  Tumor volume: 443 mm^3
[3]; [5]
  IC50: 25 nM

## CCc1nc(N)nc(N)c1-c1ccc(NCc2ccc(Cl)c(Cl)c2)c([N+](=O)[O-])c1 [Compound 23, 2,4-Diamino-5-[4-(3,4-dichlorobenzylamino)-3-nitrophenyl]-6-ethylpyrimidine]
[2]; ip, 3.125 mg/kg, 576 h
  T/C × 100: 48
[2]; ip, 6.25 mg/kg, 576 h
  T/C × 100: 36
[2]; ip, 12.5 mg/kg, 576 h
  T/C × 100: 16
[2]; ip, 25 mg/kg, 576 h
  T/C × 100: < 8
[2]; ip, 50 mg/kg, 576 h
  T/C × 100: < 8

## CCc1nc(N)nc(N)c1-c1ccc(NCc2ccc(C)cc2)c([N+](=O)[O-])c1 [Compound 25, 2,4-Diamino-5-[4-(4-methylbenzylamino)-3-nitrophenyl]-6-ethylpyrimidine]
[2]; ip, 3.125 mg/kg, 576 h
  T/C × 100: 76
[2]; ip, 6.25 mg/kg, 576 h
  T/C × 100: 44
[2]; ip, 12.5 mg/kg, 576 h
  T/C × 100: 24
[2]; ip, 25 mg/kg, 576 h
  T/C × 100: 20
[2]
  Death: Dead

## Cc1nc(N)nc(N)c1-c1ccc(Cl)c(Cl)c1 [metoprine, reference compound]
[1]; optimum dose 50 mg/kg
  response vs control in vivo at 50 mg/kg: 140%

## CCc1nc(N)nc(N)c1-c1ccc(OC)c([N+](=O)[O-])c1 [OMe]
[1]; optimum dose 120 mg/kg
  response vs control in vivo at 120 mg/kg: 189%
[4]; [13]
  IC50: 180 nM

## CCc1nc(N)nc(N)c1-c1ccc(NC(C)c2ccccc2)c([N+](=O)[O-])c1 (racemic) [Compound 9, 2,4-diamino-6-ethyl-5-(4-(±)-α-methylbenzylamino-3-nitrophenyl)-pyrimidine]
[1]; optimum dose 30 mg/kg
  response vs control in vivo at 30 mg/kg: 132%

## CCc1nc(N)nc(N)c1-c1ccc(NCc2ccc(OC)cc2)c([N+](=O)[O-])c1 [Compound 18, 2,4-Diamino-6-ethyl-5-{4-[N-(4-methoxybenzyl)amino]-3-nitrophenyl}pyrimidine]
[3]; [5]
  IC50: 50 nM
[4]; [6]
  IC50: 21 nM
[4]; Table IV, read-out: Ki, rat liver dihydrofolate reductase
  Ki: 0.088 nM

## CCc1nc(N)nc(N)c1-c1ccc(NC)c([N+](=O)[O-])c1 [Compound 1, 2,4-Diamino-5-(4-methylamino-3-nitrophenyl)-6-ethylpyrimidine]
[1]
  response vs control in vivo at 100 mg/kg: 182%

## CCc1nc(N)nc(N)c1-c1ccc(N(C)Cc2ccc(C(=O)O)cc2)c([N+](=O)[O-])c1.O [Compound 20, 2,4-Diamino-6-ethyl-5-{4-[N-(4-carboxybenzyl)-N-methylamino]-3-nitrophenyl}pyrimidine monohydrate]
[2]; [9]
  T/C × 100: 100
[2]; [10]
  T/C × 100: 107
[2]; [11]
  T/C × 100: 89
[2]; [12]
  T/C × 100: 100
[3]; [5]
  IC50: 15 nM

## CCOc1ccc(-c2c(N)nc(N)nc2CC)cc1[N+](=O)[O-] [OEt]
[4]; [13]
  IC50: 140 nM

## CCCCOc1ccc(-c2c(N)nc(N)nc2CC)cc1[N+](=O)[O-] [OBu^n]
[4]; Table I, solvent A = water, tested as ethanesulphonate salt, read-out: I50, inhibition of rat liver DHFR
  IC50: 60 nM
[4]; [8]
  Ki: 0.08 ± 0.06 nM

## CCCCNc1ccc(-c2c(N)nc(N)nc2CC)cc1[N+](=O)[O-] [Compound 4, 2,4-Diamino-5-(4-n-butylamino-3-nitrophenyl)-6-ethylpyrimidine]
[1]
  response vs control in vivo at 240 mg/kg: 206%
[3]; [7]
  IC50: 200 nM
[4]; Table II, rat liver DHFR, 95% confidence limits, tested as ethanesulphonate salt, read-out: Ki
  Ki: 0.19 ± 0.05 nM
